Measured values reported in ChEMBL document CHEMBL4138182, “Aminomethylation of heliomycin: Preparation and anticancer characterization of the first series of semi-synthetic derivatives” (Eur J Med Chem, 2018).
The source made the active and inactive calls. No cut-off for these calls is given here.

Legend:
[1] = Selectivity index, ratio of IC50 for HMEC1 cells to IC50 for human K562/4 cells; type: toxicity; settings: HMEC1 cells and K562/4 cells, read-out: Ratio IC50
[2] = Selectivity index, ratio of IC50 for HMEC1 cells to IC50 for mouse L1210 cells; type: toxicity; settings: HMEC1 cells and L1210 cells, read-out: Ratio IC50
HCT-116 [3] = assay: Antiproliferative activity against p53 deficient human HCT116 cells after 72 hrs by MTT assay; type: functional, cell-based; settings: HCT-116, 72 h
HCT-116 [4] = assay: Antiproliferative activity against human HCT116 cells after 72 hrs by MTT assay; type: functional, cell-based; settings: HCT-116, 72 h
CCRF-CEM = assay: Antiproliferative activity against human CEM cells after 72 hrs by MTT assay; type: functional, cell-based
[5] = Selectivity index, ratio of IC50 for HMEC1 cells to IC50 for human HCT116 cells; type: toxicity; settings: HMEC1 cells and HCT116 cells, read-out: Ratio IC50
[6] = Antiproliferative activity against human K562/4 cells after 72 hrs by MTT assay; type: functional, cell-based; settings: K562/4, 72 h
[7] = Selectivity index, ratio of IC50 for HMEC1 cells to IC50 for p53 deficient human HCT116 cells; type: toxicity; settings: HMEC1 cells and p53 deficient HCT116 cells, read-out: Ratio IC50
[8] = Selectivity index, ratio of IC50 for HMEC1 cells to IC50 for human HeLa cells; type: toxicity; settings: HMEC1 cells and HeLa cells, read-out: Ratio IC50
HMEC-1 = assay: Antiproliferative activity against HMEC1 cells after 72 hrs by MTT assay; type: cell-based; settings: Homo sapiens, HMEC-1, 72 h
[9] = Selectivity index, ratio of IC50 for HMEC1 cells to IC50 for human K562 cells; type: toxicity; settings: HMEC1 cells and K562 cells, read-out: Ratio IC50
HeLa = assay: Antiproliferative activity against human HeLa cells after 72 hrs by MTT assay; type: functional, cell-based
[10] = biological target: T1, DNA topoisomerase 1 (Homo sapiens) (UniProt P11387); assay: Inhibition of human DNA topoisomerase 1 assessed as decrease in relaxation of pBR322 at <= 20 uM after 30 to 40 mins by agarose gel electrophoresis
T1 sequence (whole entry): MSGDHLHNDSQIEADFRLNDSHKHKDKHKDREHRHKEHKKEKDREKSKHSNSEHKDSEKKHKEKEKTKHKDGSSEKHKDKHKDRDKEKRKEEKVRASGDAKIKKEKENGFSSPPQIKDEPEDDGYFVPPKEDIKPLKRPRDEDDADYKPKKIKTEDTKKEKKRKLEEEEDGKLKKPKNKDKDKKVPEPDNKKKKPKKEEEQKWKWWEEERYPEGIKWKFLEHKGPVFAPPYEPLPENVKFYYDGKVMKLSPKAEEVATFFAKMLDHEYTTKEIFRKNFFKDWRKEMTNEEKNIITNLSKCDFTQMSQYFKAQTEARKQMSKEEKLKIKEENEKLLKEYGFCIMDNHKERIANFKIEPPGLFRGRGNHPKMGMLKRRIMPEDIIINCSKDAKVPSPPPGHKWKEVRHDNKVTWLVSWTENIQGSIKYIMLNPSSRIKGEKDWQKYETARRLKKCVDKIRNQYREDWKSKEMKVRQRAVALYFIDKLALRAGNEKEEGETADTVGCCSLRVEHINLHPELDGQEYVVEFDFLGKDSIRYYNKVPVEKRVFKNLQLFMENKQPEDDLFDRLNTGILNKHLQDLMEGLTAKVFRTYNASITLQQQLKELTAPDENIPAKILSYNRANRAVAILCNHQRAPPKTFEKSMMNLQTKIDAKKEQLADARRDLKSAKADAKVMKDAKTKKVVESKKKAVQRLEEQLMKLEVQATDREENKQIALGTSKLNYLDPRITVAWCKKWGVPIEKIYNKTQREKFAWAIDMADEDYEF

L1210 = assay: Antiproliferative activity against mouse L1210 cells after 72 hrs by MTT assay; type: functional, cell-based; settings: L1210, 72 h
K562 = assay: Antiproliferative activity against human K562 cells after 72 hrs by MTT assay; type: functional, cell-based; settings: K562, 72 h
[11] = Selectivity index, ratio of IC50 for HMEC1 cells to IC50 for human CEM cells; type: toxicity; settings: HMEC1 cells and CEM cells, read-out: Ratio IC50
T-24 [12] = assay: Induction of apoptosis n human T24 cells assessed as PARP cleavage at 0.5 to 1 uM after 18 hrs by Western blot method; type: functional, cell-based
[13] = biological target: T1, DNA topoisomerase 1 (Homo sapiens); assay: Inhibition of human DNA topoisomerase 1 assessed as decrease in relaxation of pBR322 at 5 to 20 uM after 30 to 40 mins by agarose gel electrophoresis
T-24 [14] = assay: Growth inhibition of human T24 cells after 72 hrs by cell impedance method; type: functional, cell-based; settings: T-24, 72 h
T-24 [15] = assay: Induction of apoptosis n human T24 cells assessed as upregulation of Bak levels at 0.5 to 1 uM after 18 hrs by Western blot method; type: functional, cell-based
T-24 [16] = assay: Induction of apoptosis n human T24 cells assessed as caspase-3 cleavage at 0.5 to 1 uM after 18 hrs by Western blot method; type: functional, cell-based
Calf thymus DNA [17] = assay: Binding affinity to calf thymus double stranded DNA by Benesi-Hildebrand plot analysis; type: nucleic-acid assay, Bos taurus; settings: for Kb: Bos taurus
T-24 [18] = assay: Induction of apoptosis n human T24 cells assessed as upregulation of p53 levels at 0.5 to 1 uM after 18 hrs by Western blot method; type: functional, cell-based
Calf thymus DNA [19] = assay: Binding affinity to calf thymus double stranded DNA at 10 uM by fluorescence spectrophotometer; type: nucleic-acid assay; settings: Bos taurus
T-24 [20] = assay: Induction of apoptosis n human T24 cells at 1 uM after 24 hrs by annexin V-FITC/propidium iodide staining-based flow cytometric method; type: functional, cell-based
T-24 [21] = assay: Induction of apoptosis n human T24 cells assessed as downregulation of Bcl-2 levels at 0.5 to 1 uM after 18 hrs by Western blot method; type: functional, cell-based
T-24 [22] = assay: Induction of reactive oxygen species generation in human T24 cells at 1 uM after 30 mins by H2DCFDA dye-based flow cytometric method; type: functional, cell-based
Calf thymus DNA [23] = assay: Binding affinity to calf thymus DNA by visible spectroscopic method; type: nucleic-acid assay; settings: Bos taurus

Row | IC50 (HCT-116 [3]) | IC50 (HCT-116 [4]) | IC50 (CCRF-CEM) | IC50 (HeLa) | IC50 (L1210) | IC50 (K562) | Compound | IC50 [6] | further results
1 | 1 µM | 0.7 µM | 1.2 µM | 1.3 µM | 3.5 µM | 2.2 µM | CCOC(=O)[C@@H]1CCCN1Cc1c(O)c2c3c(c1O)C(=O)C(C)(C)c1cc(O)c4c(C)cc(O)c(c4c1-3)C2=O | 1.5 µM | selectivity ratio [1]: 2 to 50; selectivity ratio [2]: 2 to 50; selectivity ratio [5]: 2 to 50; selectivity ratio [7]: 2 to 50; selectivity ratio [8]: 2 to 50; IC50 (HMEC-1): 5.9 µM; selectivity ratio [9]: 2 to 50; Topoisomerase 1 inhibition (active/inactive) [10]: Active; selectivity ratio [11]: 2 to 50
2 | 1.1 µM | 3.6 µM | 3.4 µM | 2.6 µM | 2.9 µM | 1.5 µM | Cc1cc(O)c2c3c4c(cc(O)c13)C(C)(C)C(=O)c1c(O)c(CN3CCC(N)C3)c(O)c(c1-4)C2=O (configuration not stated) | 4.5 µM | 
3 | 0.7 µM | 1.2 µM | 2.3 µM | 2.6 µM | 0.8 µM | 0.6 µM | Cc1cc(O)c2c3c4c(cc(O)c13)C(C)(C)C(=O)c1c(O)c(CN3CCC(N)CC3)c(O)c(c1-4)C2=O | 4.1 µM | Activity (T-24 [12]): Active; inhibition [13]: Active; IC50 (T-24 [14]): 4.4 µM; Activity (T-24 [15]): Active; Activity (T-24 [16]): Active; Kd (Calf thymus DNA [17]): 8.1 µM; Kb (Calf thymus DNA [17]): 1.2 ×10⁵ /M; Activity (T-24 [18]): Active; Activity (Calf thymus DNA [19]): Active; Topoisomerase 1 inhibition (active/inactive) [10]: Active; Activity (T-24 [20]): Active; Activity (T-24 [21]): Active; Activity (T-24 [22]): Active
4 | 1.7 µM | 1.6 µM | 0.8 µM | 0.8 µM | 0.8 µM | 0.9 µM | CCN1CCN(Cc2c(O)c3c4c(c2O)C(=O)C(C)(C)c2cc(O)c5c(C)cc(O)c(c5c2-4)C3=O)CC1 | 3.4 µM | 
5 | 0.1 µM | 0.3 µM | 0.9 µM | 0.8 µM | 3.4 µM | 0.3 µM | Cc1cc(O)c2c3c4c(cc(O)c13)C(C)(C)C(=O)c1c(O)c(CN3CCCCC3)c(O)c(c1-4)C2=O | 0.8 µM | 
6 | 0.7 µM | 0.2 µM | 1.8 µM | 3.9 µM | 1.9 µM | 2.2 µM | Cc1cc(O)c2c3c4c(cc(O)c13)C(C)(C)C(=O)c1c(O)c(CNCCN(C)C)c(O)c(c1-4)C2=O | 2.2 µM | 
7 | 1.8 µM | 4.8 µM | 5.6 µM | 5.4 µM | 4.2 µM | 2.5 µM | Cc1cc(O)c2c3c4c(cc(O)c13)C(C)(C)C(=O)c1c(O)c(CN3CCNCC3)c(O)c(c1-4)C2=O | 5.8 µM | 
8 | 0.6 µM | 1.1 µM | 17.1 µM | 28.3 µM | 17 µM | 0.7 µM | Cc1cc(O)c2c3c4c(cc(O)c13)C(C)(C)C(=O)c1c(O)c(CN(C)C)c(O)c(c1-4)C2=O | 1 µM | selectivity ratio [1]: 2 to 50; selectivity ratio [2]: 2 to 50; Activity (T-24 [12]): Active; selectivity ratio [5]: 2 to 50; selectivity ratio [7]: 2 to 50; IC50 (T-24 [14]): 4.7 µM; Activity (T-24 [15]): Active; Activity (T-24 [16]): Active; Kd (Calf thymus DNA [17]): 34 µM; Kb (Calf thymus DNA [17]): 3 ×10⁴ /M; IC50 (HMEC-1): 32.6 µM; selectivity ratio [9]: 2 to 50; Activity (T-24 [18]): Active; Activity (Calf thymus DNA [19]): Active; Topoisomerase 1 inhibition (active/inactive) [10]: Active; Activity (T-24 [20]): Active; Activity (T-24 [21]): Active; Activity (T-24 [22]): Active
9 | 0.5 µM | 3.3 µM | 2.1 µM | 3.6 µM | 2.3 µM | 1.2 µM | Cc1cc(O)c2c3c4c(cc(O)c13)C(C)(C)C(=O)c1c(O)c(CN3CCN(C)CC3)c(O)c(c1-4)C2=O | 4.5 µM | 
10 |  |  |  |  |  |  | COc1cccc2c1C(=O)c1c(O)c3c(c(O)c1C2=O)C[C@@](O)(C(=O)CO)C[C@@H]3O[C@H]1C[C@H](N)[C@H](O)[C@H](C)O1 |  | Kb (Calf thymus DNA [23]): 2 ×10⁶ /M
11 | 0.5 µM | 1.1 µM | 198 µM | > 250 µM | > 250 µM | 0.4 µM | CCN(CC)Cc1c(O)c2c3c(c1O)C(=O)C(C)(C)c1cc(O)c4c(C)cc(O)c(c4c1-3)C2=O | 0.3 µM | 
12 | 1.3 µM | 3.7 µM | 5.2 µM | 4.8 µM | 3 µM | 2.7 µM | Cc1cc(O)c2c3c4c(cc(O)c13)C(C)(C)C(=O)c1c(O)c(CN3CCN(CCO)CC3)c(O)c(c1-4)C2=O | 4.2 µM | 
13 | 0.2 µM | 0.3 µM | 24.2 µM | 11.1 µM | 62 µM | 8.6 µM | Cc1cc(O)c2c3c4c(cc(O)c13)C(C)(C)C(=O)c1c(O)c(CN3CCOCC3)c(O)c(c1-4)C2=O | 0.3 µM | 
14 | 0.6 µM | 0.2 µM | 9.7 µM | 6.5 µM | 31 µM | 5.5 µM | Cc1cc(O)c2c3c4c(cc(O)c13)C(C)(C)C(=O)c1c(O)c(CN(CC(=O)O)CC(=O)O)c(O)c(c1-4)C2=O | 3.1 µM | selectivity ratio [1]: 2 to 50; selectivity ratio [2]: 2 to 50; selectivity ratio [5]: 2 to 50; selectivity ratio [7]: 2 to 50; selectivity ratio [8]: 2 to 50; IC50 (HMEC-1): 34.3 µM; selectivity ratio [9]: 2 to 50; Topoisomerase 1 inhibition (active/inactive) [10]: Active; selectivity ratio [11]: 2 to 50
15 | 0.3 µM | 0.6 µM | 0.3 µM | 0.7 µM | 8.8 µM | 0.5 µM | Cc1cc(O)c2c3c4c(cc(O)c13)C(C)(C)C(=O)c1c(O)c(CNC(C)(C)C)c(O)c(c1-4)C2=O | 1.6 µM | selectivity ratio [1]: 2 to 50; Activity (T-24 [12]): Active; selectivity ratio [5]: 2 to 50; selectivity ratio [7]: 2 to 50; selectivity ratio [8]: 2 to 50; IC50 (T-24 [14]): 1.1 µM; Activity (T-24 [15]): Active; Activity (T-24 [16]): Active; IC50 (HMEC-1): 7.8 µM; selectivity ratio [9]: 2 to 50; Activity (T-24 [18]): Active; Activity (T-24 [20]): Active; Activity (T-24 [21]): Active; selectivity ratio [11]: 2 to 50; Activity (T-24 [22]): Active
16 | 0.1 µM | 0.2 µM | 7.2 µM | 14.2 µM | 14.1 µM | 1.2 µM | Cc1cc(O)c2c3c4c(cc(O)c13)C(C)(C)C(=O)c1c(O)c(CN3CCCC3)c(O)c(c1-4)C2=O | 3.4 µM | 
17 | 0.9 µM | 1 µM | 2.1 µM | 3.6 µM | 3.4 µM | 0.7 µM | Cc1cc(O)c2c3c4c(cc(O)c13)C(C)(C)C(=O)c1c(O)c(CN3CCCC(O)C3)c(O)c(c1-4)C2=O (configuration not stated) | 0.9 µM | 
